Data on 3 compounds can be found in article PMC12693419, “Design, Synthesis, Biological Evaluation, and In Silico Studies of Novel Multitarget Cinnamic Acid Hybrids” (Molecules, 2025).

In one test the target is T1, ovine COX-2 (Ovis aries, UniProt P79208).
T1 sequence (P79208 17-603): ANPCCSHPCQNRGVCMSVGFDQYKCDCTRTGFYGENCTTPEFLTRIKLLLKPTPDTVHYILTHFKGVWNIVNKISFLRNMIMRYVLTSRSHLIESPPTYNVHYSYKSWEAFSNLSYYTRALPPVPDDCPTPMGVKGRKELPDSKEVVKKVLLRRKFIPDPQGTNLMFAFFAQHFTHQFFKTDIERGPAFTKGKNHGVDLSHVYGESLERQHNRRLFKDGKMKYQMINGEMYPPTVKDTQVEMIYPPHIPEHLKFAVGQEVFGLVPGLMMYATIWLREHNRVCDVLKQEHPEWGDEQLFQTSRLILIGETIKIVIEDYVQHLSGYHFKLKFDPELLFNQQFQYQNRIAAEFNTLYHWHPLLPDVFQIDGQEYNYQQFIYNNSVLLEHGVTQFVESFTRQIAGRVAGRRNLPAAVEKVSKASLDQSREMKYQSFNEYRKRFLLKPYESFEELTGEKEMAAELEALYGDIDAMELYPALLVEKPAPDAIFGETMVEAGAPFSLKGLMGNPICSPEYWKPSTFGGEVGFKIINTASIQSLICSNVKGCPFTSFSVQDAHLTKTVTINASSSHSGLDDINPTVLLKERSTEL
In words: In vitro inhibition of ovine cyclooxygenase-2.

Test [1] is described as follows: In vitro inhibition of linoleic acid lipid peroxidation (AAPH). The conditions noted are these: 100 μM; anti-lipid peroxidation. The procedure, abridged: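 Thermal decomposition of AAPH generated alkylperoxy radicals that oxidized sodium linoleate in aqueous dispersion at 37 °C. Formation of conjugated diene hydroperoxides was followed by absorbance at 234 nm, with Trolox as reference.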

A further test has as its target T2, COX-1 (Homo sapiens, UniProt P23219).
T2 construct: purchased Merck and Sigma-Aldrich
As to the kind of experiment: In vitro inhibition of COX-1. Format: biochemical. The source says: Enzyme inactivation can occur due to the accumulation of hydroperoxides formed from arachidonic acid or other fatty acid substrates. In order to prevent this in the in vitro experiment used for testing COX inhibition activity of the new molecules, a co-substrate like N,N,N′,N′-tetramethyl-p-phenylenediamine (TMPD) is included, as it undergoes co-oxidation by PGG2. The oxidized TMPD has a maximum absorbance at 590 nm. COX enzymes also depend on heme (Fe^3+-protoporphyrin IX) as a cofactor, which can dissociate during purification. To ensure maximum enzyme activity, heme is added to the reaction mixture during the in vitro assay for ovine COX-2 inhibition and COX-1 inhibition.
Cyclooxygenase (COX) activity was measured using arachidonic acid (AA) as the substrate and N,N,N′,N′-tetramethylphenylenediamine (TMPD) as the co-substrate following the reported method. […] The substrate oxidation was monitored at room temperature by recording the increase in absorbance at 590 nm. Absorbance due to the spontaneous oxidation of TMPD was subtracted from the initial oxidation rate observed in the presence of AA. The inhibitory activity of the test compounds at a concentration of 100 μM was evaluated after a 6-min pre-incubation with the enzyme in the presence of heme and TMPD.

The test system of a further test is U251 cells. In words: MTT viability assay. Conditions: Homo sapiens, U-251, 48 h. Format: cell-based. On the procedure:
(§1) HeLa, MCF-7, U251, U87, MDA-MB-435, and MDA-MB-231 cancer cell lines were maintained in incubators at 37 °C with 5% CO2 in DMEM medium supplemented with 10% (v/v) fetal bovine serum (FBS) and antibiotics/antimycotics. All cell lines used in this study originate from the Laboratory of Biochemistry, Department of Chemistry, Aristotle University of Thessaloniki. They are low-passage, mycoplasma-free cancer cell lines that have been extensively used over the past 25 years in numerous studies across various fields of cancer research, including drug cytotoxicity testing.
(§2) All cell lines tested were seeded in 96-well plates at a concentration of 6 × 10^3 cells per well, except HeLa, which were seeded at 3 × 10^3 cells per well. The day after, cells were exposed to increasing concentrations of the compounds for 48 h. Cell viability was determined using the 3-(4,5-dimethylthiazol-2-yl)-2,5-diphenyltetrazolium bromide (MTT) assay, a colorimetric assessment of cellular metabolic activity as described previously. Absorbance values from treated samples were normalized to those of untreated controls, which were assigned to a 100% viability value.
A general note: Tetrazolium assays rely on reduction of a dye to a coloured formazan, in cell work by metabolically active cells.

A further test deals with MDA-MB-231 cells. As to the kind of experiment: MTT viability assay. Format: cell-based. The conditions noted are these: Homo sapiens, 48 h. On the procedure:
as §1, §2

For a further test, the system named is U87 cells. In words: MTT viability assay. The format is cell-based. Conditions: Homo sapiens, U-87 MG, 48 h. On the procedure:
as §1, §2

In the next test the test system is MDA-MB-435 cells. In words: MTT viability assay. Format: cell-based. The conditions noted are these: Homo sapiens, 48 h. On the procedure: as §1, §2
The subject of test [2] is multiple cancer cell lines. As to the kind of experiment: MTT viability assay, summary over several lines. Format: cell-based. The protocol:
as §1, §2

Where two headings read alike, the source gives them in different places.

T2 sequence (P23219 24-599): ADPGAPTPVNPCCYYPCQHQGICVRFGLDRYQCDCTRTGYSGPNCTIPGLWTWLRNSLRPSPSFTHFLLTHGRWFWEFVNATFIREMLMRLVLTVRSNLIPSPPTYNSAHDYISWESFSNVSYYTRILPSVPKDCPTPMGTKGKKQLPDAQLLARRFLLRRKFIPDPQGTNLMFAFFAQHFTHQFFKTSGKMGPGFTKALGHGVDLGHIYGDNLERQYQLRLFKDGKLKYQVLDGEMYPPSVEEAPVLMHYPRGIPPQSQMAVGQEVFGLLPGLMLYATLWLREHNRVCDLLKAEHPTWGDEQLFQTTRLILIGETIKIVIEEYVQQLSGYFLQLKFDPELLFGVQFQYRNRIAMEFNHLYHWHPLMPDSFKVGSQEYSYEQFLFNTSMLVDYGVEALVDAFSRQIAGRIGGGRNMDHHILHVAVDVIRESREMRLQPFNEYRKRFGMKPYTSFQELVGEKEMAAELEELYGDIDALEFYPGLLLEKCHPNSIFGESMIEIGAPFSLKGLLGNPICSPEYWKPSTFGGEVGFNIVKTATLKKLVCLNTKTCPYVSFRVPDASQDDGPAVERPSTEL
Method for ovine COX-2: In order to prevent this in the in vitro experiment used for testing COX inhibition activity of the new molecules, a co-substrate like N,N,N′,N′-tetramethyl-p-phenylenediamine (TMPD) is included, as it undergoes co-oxidation by PGG2. The oxidized TMPD has a maximum absorbance at 590 nm. […] To ensure maximum enzyme activity, heme is added to the reaction mixture during the in vitro assay for ovine COX-2 inhibition and COX-1 inhibition [63].
The in vitro COX-2 inhibitory activity was assessed using arachidonic acid (AA) as a substrate and N,N,N′,N′-tetramethyl-p-phenylenediamine (TMPD) as a co-substrate in a Tris-HCl buffer (pH 8.5), following the reported method [89]. To the test tube, 10 µL of the compound dissolved in DMSO was added to a mixture containing 730 µL of Tris-HCl buffer (pH 8.5), 50 µL of heme, 10 µL of COX-2 enzyme, and 100 µL of TMPD. The absorbance was measured at 590 nm. […] A blank determination was conducted as a negative control.

Usually IC50 stands for the concentration needed to halve the response being measured. The low end stands for greater potency, the high end for weaker potency. The term inhibition denotes the drop in the measured response relative to a control, in per cent. Low values mean a weak effect, high ones a strong effect. In the case of `C/C(=N\O)c1ccc(NC(=O)COC(=O)/C=C/c2cccs2)cc1` [Compound 6c, 2-((4-((E)-1-(Hydroxyimino)ethyl)phenyl)amino)-2-oxoethyl (E)-3-(thiophen-2-yl)acrylate], inhibition against ovine COX-2 was half-maximal at 35 µM (IC50). For the same compound, the “AAPH Inh. at 100 μΜ” value in test [1] came to 4%. In addition, on COX-1, the inhibition at 100 µM came out at 0%; the “COX-1 at 100 μM (% inhibition)” value was “did not show any inhibition activity and no”.

The EC50 is the concentration giving half of the maximal effect. On to `C/C(=N\O)c1ccc(NC(=O)COC(=O)/C(=C/c2cccs2)c2ccccc2)cc1` [Compound 6i, 2-((4-((E)-1-(Hydroxyimino)ethyl)phenyl)amino)-2-oxoethyl (E)-2-phenyl-3-(thiophen-2-yl)acrylate], for which the EC50 in the test with U251 cells was 40.9 µM; in the test on MDA-MB-231 cells it was 42.8 µM; with U87 cells, 45.4 µM; in the test with MDA-MB-435 cells, 52.9 µM; in test [2] (U251, U87, and MDA-MB-231, read-out: EC50 values in the remaining cell lines) it was 40.9 to 45.4 µM; in test [2] (read-out: EC50 values across multiple cancer cell lines), 36 to 45 µM. Moreover, it took 80 µM to reach half-maximal inhibition at ovine COX-2 (IC50). Also, in test [1], the “AAPH Inh. at 100 μΜ” value is on record as 28%. Moreover, at 100 µM the inhibition at COX-1 was 16.7%.

For the compound `O=C(/C=C/c1cc2ccccc2s1)OCc1c(-c2ccccc2)no[n+]1[O-]` [Compound 9e, (E)-3-(((3-(Benzo[b]thiophen-2-yl)acryloyl)oxy)methyl)-4-phenyl-1,2,5-oxadiazole 2-oxide], the IC50 against ovine COX-2 is 8.25 µM. Also, the “AAPH Inh. at 100 μΜ” value in test [1] amounted to 67%. Also, on COX-1, 100 µM produced 0% inhibition; the “COX-1 at 100 μM (% inhibition)” value was “did not show any inhibition activity and no”.
